Values after ≈ are worked out from the molar mass of the structure shown.
Tests used:
mice [1] = experiment: Biochemical parameters in blood after restraint stress; assay type: in vivo, Balb/C mice; settings: flavonoids 10 mg/kg, standard diazepam 2 mg/kg, 15 days, mean ± SEM
Source text: (§1) The adhesive tape was removed, and blood samples were collected. After blood collection, the animals were sacrificed, and the brain and vital organs were isolated and weighed.
After restrain test, blood samples were collected for the assessment of blood glucose, triglycerides and total cholesterol levels, using available commercial kits. […]

[2] = DPPH free radical scavenging assay; assay type: biochemical; settings: concentration range 6.25–50 μg/mL, absorbance 517 nm
Experimental: Scavenging activities for DPPH and ABTS were calculated and the IC50 was determined.

mice [3] = experiment: Restraint stress, organ weights; assay type: in vivo, Balb/C mice; settings: restraint stress 2 h; flavonoids 10 mg/kg p.o., standard diazepam 2 mg/kg IP, 15 days; mean ± SEM
Source text: as §1

[4] = test system: acetic acid-induced stress mice; experiment: Chemical induced stress (acetic acid model, writhes); assay type: in vivo, Balb/C mice
Source text: The anti-stress effect of synthesized flavonoids was screened for chemical-induced stress using the acetic acid model. Animals were randomly assigned into two groups of 8. The control group received Tween 80 (2%). […] The treatments in all groups were given persistently for a period of 15 days.

mice [5] = experiment: Swimming endurance test; assay type: in vivo, Balb/C mice; settings: flavonoids 10 mg/kg, standard diazepam 2 mg/kg IP, 15 days; recorded for 30 min; mean ± SEM, n = 8
Experimental: Animals were divided at random into two groups of 8. Tween 80 (2%) was given to the control group, while animals in each group were treated with 10 mg/kg of each flavonoid. […] All the doses were given constantly for 15 days. On 15th day, one hour after the dose administration, all the animals were allowed to swim in isolation in a glass tank. The time of immobility for each animal was recorded for a period of 30 min [26, 27].

mice [6] = experiment: Biochemical parameters in brain after restraint stress; assay type: in vivo, Balb/C mice; settings: flavonoids 10 mg/kg, standard diazepam 2 mg/kg, 15 days, mean ± SEM

O=c1c(O)c(-c2ccc(C(F)(F)F)cc2)oc2ccccc12 [OF6]
Glucose (blood) (mice [1]): 100.32 ± 1.29
TGs (blood triglycerides) (mice [1]): 44.02 ± 0.30
Total Ch (blood total cholesterol) (mice [1]): 77.02 ± 0.97
IC50, scavenging against DPPH [2]: 122.33 ± 1.98 µg/mL (≈ 399 µM)
Weight of Adrenal Gland (mice [3]): 8.11 ± 1.31 mg
Weight of Brain (mice [3]): 403.9 ± 2.239 mg
Weight of Spleen (mice [3]): 179.1 ± 2.30 mg
inhibition in vivo at 10 mg/kg ([4]; Mus musculus, ip, 360 h, read-out: Antistress Response (%)): 66.5%
Number of Writhes ([4]; flavonoids 10 mg/kg, standard diazepam 2 mg/kg IP, 15 days, acetic acid i.p. 0.1 mL (6% v/v), writhes within 20 min, mean ± SEM, n = 8): 15.88 ± 2.11
Immobility Time (mice [5]): 3.34 ± 0.25 min
Catalase (brain) (mice [6]): 17.01 ± 0.52 IU/dL
SOD (brain) (mice [6]): 8.03 ± 0.49 IU/dL
TBARS (brain lipid peroxidation) (mice [6]): 18.10 ± 0.51 nmol/g

— paper PMC8879959, “In Vivo Antistress Effects of Synthetic Flavonoids in Mice: Behavioral and Biochemical Approach” (Molecules, 2022)
